Results reported in patent publication US20080051420A1, “New Compounds 317” (AstraZeneca AB, priority 2006, published 2008).
pIC50: −log10 of the molar value.

The compounds below were run against T1, human β-secretase (Homo sapiens, UniProt P56817) (assay: TR-FRET assay (β-secretase enzyme, sBACE-Fc)). Settings: read-out: IC50 in TR-FRET assay.
T1 construct: The soluble part of the human β-secretase (AA 1-AA 460) was cloned; made in house
Assay type: biochemical
Description: The enzyme used in the IGEN Cleavage-, Fluorescent-, TR-FRET- and BiaCore assays is described as follows:
The soluble part of the human β-secretase (AA 1-AA 460) was cloned into the ASP2-F10-1-IRES-GFP-neoK mammalian expression vector. The gene was fused to the Fc domain of IgG1 (affinity tag) and stably cloned into HEK 293 cells. Purified sBACE-Fc is stored in Tris buffer, pH 9.2 and has a purity of 95%.
Enzyme was diluted to 6 μg/mL and the substrate (Europium)[…](Qsy7) to 200 nM in reaction buffer (NaAcetate, chaps, triton x-100, EDTA pH 4.5). Compounds were diluted to the desired concentration in dimethyl sulfoxide (final dimethyl sulfoxide concentration in assay is 5%). […] Enzyme (9 μL) and 1 μL of compound in dimethyl sulfoxide was added to the plate, mixed and pre-incubated for 10 min. Substrate (10 μL) was added and the reaction proceeded in the dark for 15 min at RT. The reaction was stopped with the addition of 7 μL NaAcetate, pH 9. […] The dimethyl sulfoxide control defined the 100% activity level and 0% activity was defined by exclusion of the enzyme (using reaction buffer instead).

T1 sequence (P56817 22-460): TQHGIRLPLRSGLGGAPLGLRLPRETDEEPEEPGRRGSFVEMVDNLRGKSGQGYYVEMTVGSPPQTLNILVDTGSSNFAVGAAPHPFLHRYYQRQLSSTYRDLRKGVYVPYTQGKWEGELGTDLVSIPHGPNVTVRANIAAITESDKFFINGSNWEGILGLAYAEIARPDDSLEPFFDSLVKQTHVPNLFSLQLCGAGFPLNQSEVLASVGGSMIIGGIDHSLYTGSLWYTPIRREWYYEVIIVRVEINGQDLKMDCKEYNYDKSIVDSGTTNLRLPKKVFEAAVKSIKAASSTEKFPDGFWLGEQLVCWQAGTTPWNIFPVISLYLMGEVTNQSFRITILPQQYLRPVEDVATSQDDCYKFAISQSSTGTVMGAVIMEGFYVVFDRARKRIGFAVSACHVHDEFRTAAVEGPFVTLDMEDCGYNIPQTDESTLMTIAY

pIC50 | Compound
6.84 | 4-[5-Amino-7-(3′,5′-dichlorobiphenyl-3-yl)-2,7-dihydro-3H-imidazo[1,5-a]imidazol-7-yl]phenyl methanesulfonate 0.25 acetate [Example 75]
6.30 | CS(=O)(=O)Oc1ccc(C2(c3cccc(-c4cnccn4)c3)N=C(N)N3CCCN=C32)cc1 (stereo not shown) [Example 32, 4-[6-Amino-8-(3-pyrazin-2-ylphenyl)-2,3,4,8-tetrahydroimidazo[1,5-a]pyrimidin-8-yl]phenyl methanesulfonate acetate]
6.79 | COc1cncc(-c2cccc(C3(c4ccc(OS(C)(=O)=O)cc4)N=C(N)N4CCCN=C43)c2)c1 (stereo not shown) [Example 34, 4-{6-Amino-8-[3-(5-methoxypyridin-3-yl)phenyl]-2,3,4,8-tetrahydroimidazo[1,5-a]pyrimidin-8-yl}phenyl methanesulfonate acetate]
6.01 | CS(=O)(=O)Oc1ccc(C2(c3cccc(-c4cccc(OC(F)(F)F)c4)c3)N=C(N)N3CCCN=C32)cc1 (stereo not shown) [Example 41, 4-{6-Amino-8-[3′-(trifluoromethoxy)biphenyl-3-yl]-2,3,4,8-tetrahydroimidazo[1,5-a]pyrimidin-8-yl}phenyl methanesulfonate 0.5 acetate]
7.37 | COc1ccc(C2(c3cccc(-c4cc(OC)cc(OS(C)(=O)=O)c4)c3)N=C(N)N3CCCN=C32)cc1 (stereo not shown) [Example 52, 3′-[6-Amino-8-(4-methoxyphenyl)-2,3,4,8-tetrahydroimidazo[1,5-a]pyrimidin-8-yl]-5-methoxybiphenyl-3-yl methanesulfonate acetate]
6.86 | CCCS(=O)(=O)Oc1ccc(C2(c3cccc(-c4cccc(OC)c4)c3)N=C(N)N3CCCN=C32)cc1 (stereo not shown) [Example 55, 4-[6-Amino-8-(3′-methoxybiphenyl-3-yl)-2,3,4,8-tetrahydroimidazo[1,5-a]pyrimidin-8-yl]phenyl propane-1-sulfonate 0.75 acetate]
6.17 | CCCS(=O)(=O)Oc1ccc(C2(c3cccc(-c4ccc(F)c(OC)c4)c3)N=C(N)N3CCCN=C32)cc1 (stereo not shown) [Example 61, 4-[6-Amino-8-(4′-fluoro-3′-methoxybiphenyl-3-yl)-2,3,4,8-tetrahydroimidazo[1,5-a]pyrimidin-8-yl]phenyl propane-1-sulfonate 0.75 acetate]
6.04 | CCCS(=O)(=O)Oc1ccc(C2(c3cccc(-c4cc(Cl)ccc4Cl)c3)N=C(N)N3CCCN=C32)cc1 (stereo not shown) [Example 63, 4-[6-Amino-8-(2′,5′-dichlorobiphenyl-3-yl)-2,3,4,8-tetrahydroimidazo[1,5-a]pyrimidin-8-yl]phenyl propane-1-sulfonate 0.75 acetate]
7.02 | CCCS(=O)(=O)Oc1ccc(C2(c3cccc(-c4cncc(OC)c4)c3)N=C(N)N3CCCN=C32)cc1 (stereo not shown) [Example 64, 4-{6-Amino-8-[3-(5-methoxypyridin-3-yl)phenyl]-2,3,4,8-tetrahydroimidazo[1,5-a]pyrimidin-8-yl}phenyl propane-1-sulfonate 0.75 acetate]
7.18 | NC1=NC(c2ccc(OS(=O)(=O)C3CC3)cc2)(c2cccc(-c3cc(Cl)cc(Cl)c3)c2)C2=NCCCN12 (stereo not shown) [Example 66, 4-[6-Amino-8-(3′,5′-dichlorobiphenyl-3-yl)-2,3,4,8-tetrahydroimidazo[1,5-a]pyrimidin-8-yl]phenyl cyclopropanesulfonate 0.75 acetate]
7.21 | NC1=NC(c2ccc(OS(=O)(=O)C3CC3)cc2)(c2cccc(-c3cccc(Cl)c3)c2)C2=NCCCN12 (stereo not shown) [Example 67, 4-[6-Amino-8-(3′-chlorobiphenyl-3-yl)-2,3,4,8-tetrahydroimidazo[1,5-a]pyrimidin-8-yl]phenyl cyclopropane sulfonate 0.75 acetate]
6.21 | NC1=NC(c2ccc(OS(=O)(=O)C3CC3)cc2)(c2cccc(-c3cccc(C(F)(F)F)c3)c2)C2=NCCCN12 (stereo not shown) [Example 70, 4-{6-Amino-8-[3′-(trifluoromethyl)biphenyl-3-yl]-2,3,4,8-tetrahydroimidazo[1,5-a]pyrimidin-8-yl}phenyl cyclopropane sulfonate 0.75 acetate]

The next lines start with the compound.

Compound | pIC50
COc1cccc(-c2cccc(C3(c4ccc(OS(C)(=O)=O)cc4)N=C(N)N4CCCN=C43)c2)c1 (stereo not shown) [Example 31, 4-[6-Amino-8-(3′-methoxybiphenyl-3-yl)-2,3,4,8-tetrahydroimidazo[1,5-a]pyrimidin-8-yl]phenyl methanesulfonate acetate] | 6.81
CS(=O)(=O)Oc1ccc(C2(c3cccc(-c4cncc(F)c4)c3)N=C(N)N3CCCN=C32)cc1 (stereo not shown) [Example 33, 4-{6-Amino-8-[3-(5-fluoropyridin-3-yl)phenyl]-2,3,4,8-tetrahydroimidazo[1,5-a]pyrimidin-8-yl}phenyl methanesulfonate acetate] | 6.40
CCOc1cccc(-c2cccc(C3(c4ccc(OS(C)(=O)=O)cc4)N=C(N)N4CCCN=C43)c2)c1 (stereo not shown) [Example 44, 4-[6-Amino-8-(3′-ethoxybiphenyl-3-yl)-2,3,4,8-tetrahydroimidazo[1,5-a]pyrimidin-8-yl]phenyl methanesulfonate 0.5 acetate] | 6.33
CCCS(=O)(=O)Oc1ccc(C2(c3cccc(-c4cnccn4)c3)N=C(N)N3CCCN=C32)cc1 (stereo not shown) [Example 54, 4-[6-Amino-8-(3-pyrazin-2-ylphenyl)-2,3,4,8-tetrahydroimidazo[1,5-a]pyrimidin-8-yl]phenyl propane-1-sulfonate acetate] | 6.46
CCCS(=O)(=O)Oc1ccc(C2(c3cccc(-c4cccc(Cl)c4)c3)N=C(N)N3CCCN=C32)cc1 (stereo not shown) [Example 57, 4-[6-Amino-8-(3′-chlorobiphenyl-3-yl)-2,3,4,8-tetrahydroimidazo[1,5-a]pyrimidin-8-yl]phenyl propane-1-sulfonate 0.75 acetate] | 7.15
CCCS(=O)(=O)Oc1ccc(C2(c3cccc(-c4cccnc4F)c3)N=C(N)N3CCCN=C32)cc1 (stereo not shown) [Example 59, 4-{6-Amino-8-[3-(2-fluoropyridin-3-yl)phenyl]-2,3,4,8-tetrahydroimidazo[1,5-a]pyrimidin-8-yl}phenyl propane-1-sulfonate acetate] | 6.66
CCCS(=O)(=O)Oc1ccc(C2(c3cccc(-c4cccc(C(F)(F)F)c4)c3)N=C(N)N3CCCN=C32)cc1 (stereo not shown) [Example 60, 4-{6-Amino-8-[3′-(trifluoromethyl)biphenyl-3-yl]-2,3,4,8-tetrahydroimidazo[1,5-a]pyrimidin-8-yl}phenyl propane-1-sulfonate 0.5 acetate] | 6.31
CCCS(=O)(=O)Oc1ccc(C2(c3cccc(-c4cccc(Cl)c4F)c3)N=C(N)N3CCCN=C32)cc1 (stereo not shown) [Example 62, 4-[6-Amino-8-(3′-chloro-2′-fluorobiphenyl-3-yl)-2,3,4,8-tetrahydroimidazo[1,5-a]pyrimidin-8-yl]phenyl propane-1-sulfonate 0.75 acetate] | 6.60
COc1cccc(-c2cccc(C3(c4ccc(OS(=O)(=O)C5CC5)cc4)N=C(N)N4CCCN=C43)c2)c1 (stereo not shown) [Example 65, 4-[6-Amino-8-(3′-methoxybiphenyl-3-yl)-2,3,4,8-tetrahydroimidazo[1,5-a]pyrimidin-8-yl]phenyl cyclopropane sulfonate 0.75 acetate] | 6.61
NC1=NC(c2ccc(OS(=O)(=O)C3CC3)cc2)(c2cccc(-c3cccnc3F)c2)C2=NCCCN12 (stereo not shown) [Example 69, 4-{6-Amino-8-[3-(2-fluoropyridin-3-yl)phenyl]-2,3,4,8-tetrahydroimidazo[1,5-a]pyrimidin-8-yl}phenyl cyclopropane sulfonate 0.75 acetate] | 6.50
